From patent publication US4440757A, “Pharmaceutical composition comprising derivative of aminobenzoic acid for regulating prostaglandin” (priority 1978, dated 1984) come the findings set out here.

The subject of one assay is male Donryu rats. As to the kind of experiment: Stress ulcer of the stomach and 6-keto PGF1α. The class given is in vivo. The following applies: 1 g/kg p.o.; for Ulcer-coefficient: 7 hours stress, control 100; for Amount of 6-keto PGF1α: plasma, control 3.3. How it is done:
Three groups of male Donryu rats of body weight of 220 to 250 g after 23.5 hours of fasting were administered orally with the present substance (each of Specimen Nos. 4, 7 and 8) at a rate of one gram/kg dissolved in 8 ml (per 200 g body weight) of an aqueous physiological saline solution.
These three groups of rats and another group of rats equally fasted for 23.5 hours and then administered with only the aqueous physiological saline solution were put into the stresscage, and soaked in water at a temperature of 23° C. to the depth of their breast to load the stress on the rats.
After 7 hours of soaking, the rats were pulled out from water and were immediately sacrificed to collect the whole blood, and their stomachs were extirpated. The plasma fraction prepared from the blood was extracted with ether and the etherextract was separated by thin layer chromatography. The separated extract, after converted to the respective methyloximesilyl derivatives, was subjected to gaschromatography-mass spectorography to determine the content of 6-keto PGF1α.
An aqueous 1% solution of formaldehyde was injected into the extirpated stomach and after 10 min of injection, the stomach was cut to be opened at the greater curvature side to examine the mucous membrane of the gastric body. The longer span of each erosion in the mucous membrane of a rat, if any, was measured microscopically, and its sum expressed by millimeter was taken as an ulcer coefficient of the rat.

Assay [1] deals with female spontaneously hypertensive rats (SHR). The assay can be described thus: Diuretic effect and 6-keto PGF1α in blood. The format is in vivo, rat (SHR). The following applies: for Level of 6-keto PGF1α in blood: control 3.0. As for the experimental part: Groups of female spontaneously hypertensive rats (SHR) kept in fasting for 12 hours and abstained from water for 2 hours were treated by forced oral administration of the present substance (each of Specimens Nos. 4, 7 and 8) at respective rates of 1 and 5 g/kg dissolved in 8 ml (per 200 g b.w.) of an aqueous physiological saline solution, control group being administered only with the aqueous physiological saline solution in an amount of 8 ml/200 g b.w.
The amount of excreted urine of the rats was measured every hour from one hour after the administration for 6 times, and the percentages of the volume of urine to the volume of the aqueous physiological saline solution containing the present substance formerly administered (8 ml per 200 g b.w.) are shown in Table 19.
In the next place, after 6 hours of the administration, all animals were sacrificed to collect the whole blood for obtaining its plasma fraction. The ether-extract of the plasma fraction was separated by thin-layer chromatography and after converting the thus separated substances into methyloximesilyl derivatives, the variation of 6 keto PGF1α was examined by gas-chromatography-mass-spectrography.

A further assay deals with sarcoma 180. The assay can be described thus: Translocation of dye-staff to sarcoma 180 (visual). The format is in vivo, ICR mouse. The following applies: 1000 mg/kg p.o. once. As for the experimental part: On the axillary part of an ICR mouse, 10^6 cells of sarcoma 180 were subcutaneously transplanted. While feeding the both animals, the present substance, Specimen No. 7, was forcibly administered orally once at a rate of 1000 mg/kg on 16th day of the transplantation and an aqueous 2% solution of Lissamine Green (a dye-staff manufactured by Imperial Chem. Ind. Co.) was injected into the caudal vein of the animal at a rate of 1 ml for a rat and 0.5 ml for a mouse.
After one hour of the injection, the animal was sacrificed to extirpate the proliferated tumour. The tumour of the rat was finely cut and homogenized with an aqueous 50% solution of ethanol. After diluting the homogenate with an addition of the solution to a total volume of 50 ml, the liquid was centrifugated for 15 min at 1000 rpm to separate the supernatant liquid. The content of the dye-staff was determined on the supernatant liquid itself or after dilution by spectrophotometry using its absorption maximum of 630 nm.

For the next assay, the system named is Ehrlich cancer cells. The assay can be described thus: Cyclic AMP and cyclic GMP in cancer cells of cancer-bearing mouse. The class given is in vivo, female ICR/JCL mice. To be noted: 200 mg/kg/day i.p., 5 days. How it is done:
Ehrlich cancer cells were transplanted into the abdominal cavity of female ICR/JCL mice after 5 weeks of birth at a rate of 1×10^6, cells/animal, and while feeding the mice, the present substance, Specimen No. 7, was intraperitoneally administered to the mice every day from the next day of transplantation for 5 days at a rate of 200 mg/kg/day. On the 6th day, the mice were sacrificed with ether to collect each 5 ml of ascites. After adding tetrasodium ethylenediamminetetraacetate into the thus collected ascites, the mixture was centrifugated for 10 min at a temperature of 4° C. and 1,500 rpm to separate the supernatant liquid and the cancer cells. The supernatant liquid was again centrifugated at 4° C. and 3,000 rpm for 15 min. The separated cancer cells were washed with Hank's solution and then subjected to repeated centrifugation for 5 times at 800 rpm for each 5 min to remove impurities such as erythrocytes, etc. After homogenizing 1×10^8 cells of the cancer in 3 ml of an aqueous 6% solution of trichloroacetic acid at a temperature of 0° C., the homogenate was centrifugated for 20 min at 3000XG to obtain a liquid extract. After adding 10% by weight of an aqueous 1 N solution of hydrochloric acid to the liquid extract, it was extracted 5 times with each two times by volume of ether to remove trichloroacetic acid. […]

The mark [2] stands for this setting: 1 g/kg p.o., 2 hours, control 9.
The mark [3] stands for this setting: 1 g/kg p.o., 3 hours, control 22.
[4] abbreviates: 1 g/kg p.o., 4 hours, control 26.
The mark [5] stands for this setting: 1 g/kg p.o., 5 hours, control 28.
[6] abbreviates: 1 g/kg p.o., 6 hours, control 30.
The mark [7] stands for this setting: 5 g/kg p.o., 2 hours, control 9.
Setting [8] is: 5 g/kg p.o., 3 hours, control 22.
[9] abbreviates: 5 g/kg p.o., 4 hours, control 26.
Where [10] appears, read: 5 g/kg p.o., 5 hours, control 28.
Where [11] appears, read: 5 g/kg p.o., 6 hours, control 30.

In the assay on male Donryu rats, `O=C(O)c1ccc(NC2O[C@H](CO)[C@@H](O)[C@H](O)[C@@H]2O)cc1` (stereo partly drawn) [Specimen No. 4, Sodium p-aminobenzoate-N--D-mannoside] displayed a Ulcer-coefficient of 62%. Besides, the “Amount of 6-keto PGF1α” value in the assay with male Donryu rats was determined as 3.8 ng/mL. Also, the Volume of urine in assay [1] (1 g/kg p.o., 1 hour, control 2) was determined as 6%; in assay [1] (setting [2]) it was 40%; in assay [1] (setting [3]) it was 46%; in assay [1] (setting [4]) it was 50%; in assay [1] (setting [5]), 60%; in assay [1] (setting [6]), 63%. Besides, the Volume of urine came out at 7% in assay [1] (5 g/kg p.o., 1 hour, control 2); 40% in assay [1] (setting [7]); 50% in assay [1] (setting [8]); 52% in assay [1] (setting [9]); 78% in assay [1] (setting [10]); 91% in assay [1] (setting [11]). Besides, the “Level of 6-keto PGF1α in blood” value in assay [1] (1 g/kg p.o., 6 hours) was found to be 3.3 ng/mL; in assay [1] (5 g/kg p.o., 6 hours) it was 3.5 ng/mL.
`C[C@@H]1OC(Nc2ccc(C(=O)O)cc2)[C@H](O)[C@H](O)[C@H]1O` (stereo partly drawn) [Specimen No. 8, Sodium p-aminobenzoate-N--L-rhamnoside] gave a Ulcer-coefficient in the assay with male Donryu rats of 55%. The “Amount of 6-keto PGF1α” value in the assay with male Donryu rats came to 3.6 ng/mL. Moreover, the Volume of urine in assay [1] (1 g/kg p.o., 1 hour, control 2) was found to be 5%; in assay [1] (setting [2]) it was 39%; in assay [1] (setting [3]) it was 47%; in assay [1] (setting [4]), 50%; in assay [1] (setting [5]), 65%; in assay [1] (setting [6]), 68%. Moreover, the Volume of urine in assay [1] (5 g/kg p.o., 1 hour, control 2) is 5%; in assay [1] (setting [7]), 43%; in assay [1] (setting [8]) it was 60%; in assay [1] (setting [9]), 70%; in assay [1] (setting [10]), 77%; in assay [1] (setting [11]), 93%. For the same compound, the “Level of 6-keto PGF1α in blood” value turned out to be 3.2 ng/mL in assay [1] (1 g/kg p.o., 6 hours) and 3.7 ng/mL in assay [1] (5 g/kg p.o., 6 hours).
Regarding `O=C(O)c1ccc(NC2OC[C@@H](O)[C@H](O)[C@H]2O)cc1` (stereo partly drawn) [Specimen No. 7, Sodium p-aminobenzoate-N--D-xyloside], the Ulcer-coefficient with male Donryu rats was determined as 58%. Also, the “Amount of 6-keto PGF1α” value in the assay on male Donryu rats was found to be 3.9 ng/mL. Besides, the Volume of urine came to 4% in assay [1] (1 g/kg p.o., 1 hour, control 2); 38% in assay [1] (setting [2]); 45% in assay [1] (setting [3]); 48% in assay [1] (setting [4]); 63% in assay [1] (setting [5]); 72% in assay [1] (setting [6]). Moreover, the Volume of urine in assay [1] (5 g/kg p.o., 1 hour, control 2) is 5%; in assay [1] (setting [7]), 50%; in assay [1] (setting [8]), 66%; in assay [1] (setting [9]), 80%; in assay [1] (setting [10]), 92%; in assay [1] (setting [11]), 100%. Further, the “Level of 6-keto PGF1α in blood” value in assay [1] (1 g/kg p.o., 6 hours) worked out at 3.5 ng/mL. In addition, the “sedimentation of the dye-staff in the central part of the tumour (visual)” value with sarcoma 180 is “remarkable sedimentation of the dye-staff in the central part of the tumour”. Also, the “GMP per 10^8 cancer cells” value in the assay on Ehrlich cancer cells (control 0.59) is 0.72 pM. Further, the “Cyclic AMP per 10^8 cancer cells” value in the assay on Ehrlich cancer cells (control 19.5) is recorded as 21.2 pM.
